Experimental data as given in US20080287371A1, “MACROCYCLIC ANTAGONISTS OF THE MOTILIN RECEPTOR FOR MODULATION OF THE MIGRATING MOTOR COMPLEX” (Tranzyme Pharma Inc., priority 2007, published 2008).
Entries after “also recorded” stand apart in the source; their conditions may differ.

Assays:
MMC = conditions: dog; cited from earlier work
[1] = system: post-prandial gastrointestinal activity; experiment: Strain gauge animal model (Method F): post-prandial gastrointestinal activity in fed dogs; format: in vivo, beagle dogs
Procedure: Gastrointestinal motility was measured for 24 hours by telemetry in freely moving beagle dogs instrumented with strain gauges on both the antrum and duodenum. The method utilized for the strain gauges was based upon that in the literature. (Edelbroek, M.; Schuurkes, J.; De Ridder, W.; Horowitz, M.; Dent, J.; Akkermans, L. Dig. Dis. Sci. 1995, 40, 901-911; Briejer, M. R.; Prins, N. H.; Schuurkes, J. A. Neurogastroenterol. Motil. 2001 13, 465-472.) Analogous methods that can be used are known. (Dog: Itohb, Z.; Honda, R.; Takeuchi, S.; Aizawa, I.; Takayanagi, R. Gastroenterol. Jpn. 1977, 12, 275-283; Iwai, T.; Nakamura, H.; Takanashi, H.; et al. Can. J. Physiol. Pharmacol. 1998, 76, 1103-1109; Dog and guinea pig, Ohno, T.; Kamiyama, Y.; Aihara, R.; Nakabayashi, T.; Mochiki, E.; Asao, T.; Kuwano, H. Neurogastroenterol. Motil. 2006, 18, 129-135; Rat: Bunce, K. T.; Elswood, C. J.; Ball, M. T. Br. J. Pharmacol. 1991, 102, 811-816; Guinea pig: Cooke, H. J.; Wang, Y. Z.; Frieling, T.; Wood, J. D. Am. J. Physiol. 1991, 261, G833-G840.) […]
Intraluminal pressures were recorded with a manometric assembly incorporating a sleeve sensor with a 4.8 cm length (outer diameter 5.4 mm) to monitor pyloric pressure waves. […]

[2] = system: migrating motor complex (MMC); experiment: Strain gauge animal model (Method F): migrating motor complex in fasted dogs; format: in vivo, beagle dogs; conditions: for effect on the migrating motor complex (MMC): fasted beagle dogs
Procedure: Gastrointestinal motility was measured for 24 hours by telemetry in freely moving beagle dogs instrumented with strain gauges on both the antrum and duodenum. The method utilized for the strain gauges was based upon that in the literature. (Edelbroek, M.; Schuurkes, J.; De Ridder, W.; Horowitz, M.; Dent, J.; Akkermans, L. Dig. Dis. Sci. 1995, 40, 901-911; Briejer, M. R.; Prins, N. H.; Schuurkes, J. A. Neurogastroenterol. Motil. 2001 13, 465-472.) Analogous methods that can be used are known. (Dog: Itohb, Z.; Honda, R.; Takeuchi, S.; Aizawa, I.; Takayanagi, R. Gastroenterol. Jpn. 1977, 12, 275-283; Iwai, T.; Nakamura, H.; Takanashi, H.; et al. Can. J. Physiol. Pharmacol. 1998, 76, 1103-1109; Dog and guinea pig, Ohno, T.; Kamiyama, Y.; Aihara, R.; Nakabayashi, T.; Mochiki, E.; Asao, T.; Kuwano, H. Neurogastroenterol. Motil. 2006, 18, 129-135; Rat: Bunce, K. T.; Elswood, C. J.; Ball, M. T. Br. J. Pharmacol. 1991, 102, 811-816; Guinea pig: Cooke, H. J.; Wang, Y. Z.; Frieling, T.; Wood, J. D. Am. J. Physiol. 1991, 261, G833-G840.)
Calibrated strain gauges (Schuurkes, J. A. J.; Van der Schee, E. J.; Grashuis, J. L.; Charbon, G. R. A. in Gastrointestinal Motility in Health and Disease; Duthie, H. L., Ed., MTP Press, Lancaster (UK), 1978, pp 647-654) and bipolar extracellular electrodes were implanted under aseptic conditions in each of four female beagle dogs. (Bass, P.; Wiley, J. N. J. Appl. Physiol. 1972, 32, 567-570.) The strain gauges were sutured onto the seromuscular layer parallel to the axis of the circular muscle, on the distal antrum (3 cm orad to the distal pyloric loop), proximal duodenum (3 cm and 6 cm aborad to the pylorus) and distal pyloric muscle loop. The bipolar extracellular electrodes were implanted onto the scrosal side of the distal antrum and proximal duodenum 2 cm orad and aborad to the pylorus. The lead wires were brought out via a subcutaneous tunnel in the left costal flank through a stab wound between the scapulae. Postsurgically, the lead wires were soldered to the connectors and protected appropriately.
In the same surgical incision, a gastrostomy and duodenostomy were performed. The gastrostomy was situated anteriorly in the midventral region between the lesser and greater curvature 2 cm orad to the nerve of Latarget and kept patent with a stainless steel cannula (internal diameter 1.4 cm, length 7.0 cm). The duodenostomy was situated 10 cm aborad to the pylorus and was kept patent with a cannula of smaller diameter (internal diameter 0.9 cm, length 7.5 cm). A thin tubing (outer diameter 2.2 mm) was pulled across the pylorus and attached to the caps of the gastric and duodenal cannulae in order to facilitate placement of the manometric assembly postsurgically. The greater omentum was wrapped around the cannulae to secure positioning and then the cannulae were tightly capped between experiments to permit normal feeding. Dogs were allowed to recover for at least two weeks prior to conduct of any experiments.
Intraluminal pressures were recorded with a manometric assembly incorporating a sleeve sensor with a 4.8 cm length (outer diameter 5.4 mm) to monitor pyloric pressure waves. (Dent, J. Gastroenterology 1976, 71, 263-267.) Four side holes were spaced at 1.6-cm intervals along the sleeve length. Side holes at each end of the sleeve were used to measure antral and duodenal pressures and transmucosal potential difference (TMPD) simultaneously. (Arndorfer, R. C.; Stef, J. J.; Doss, W. J.; Linehan, J. H.; Hogan, W. J. Gastroenterol. 1977, 73, 23-27.) Two additional side holes were placed 3.3 and 1.6 cm orad to the proximal end of the sleeve (antral sites) and another two side holes were placed 1.6 and 3.3 cm aborad to the distal end of the sleeve (duodenal sites). All channels were perfused with degassed distilled water at 0.3 mL/min, except for the side holes used to measure the antroduodenal TMPD, which were perfused with saline. […]

[3] = system: fundic tone / gastric accommodation; experiment: Animal model of fundic accommodation (Method E, barostat, milk meal); format: in vivo, Beagle dogs
Procedure: Fundic accommodation in response to a 200 mL milk meal was measured using a barostat. This can be considered as a model for functional dyspepsia, at least some occurrences of which is known to be a result of poor gastric accommodation (Tack, J.; Piessevaux, H.; Coulie, B.; Caenepeel, P.; Janssens, J. Gastroenterology 1998, 115, 1346-1352; DiStefano, M.; Micelli, E.; Mazzocchi, S.; Tana, P.; Corazza, G. R. Eur. Rev. Med. Pharmacol. Sci. 2005, 9, 23-28; Kindt, S.; Tack, J. Gut 2006, 55, 1685-1691; van den Elzen, B. D.; Boeckxstaens, G. E. Aliment. Pharmacol. Ther. 2006, 23, 1499-1510.). The described method is based upon a literature method. (Meulemans A. Schuurkes J. Neurogastroenterol. Motil. 1995, 7, 151-155.) The use of gallbladder volume has been linked to the motilin effect in functional dyspepsia and also can be used as a biomarker to test the effect of an antagonist on FD in humans. (Kamerling, I. M. C.; Van Haarst, A. D.; De Kam, M. L.; Cohen, A. F.; Masclee, A. A. M.; Burggraaf, J. Aliment, Pharmacol. Ther. 2004, 19, 797-804.) Other methods can also be utilized for this assessment and have been reviewed. (DeSchepper, H. U.; Cremonini, F.,; Chitkara, D.; Camilleri, M. Neurogastroenterol. Motil. 2004, 16, 275-285.) The dog is often used as an appropriate model for GI diseases due to the similarity in the alimentary tracts between dogs and humans. Additionally, the dog motilin receptor has been identified and characterized with the expression profile determined. It shares 71% homology to the human receptor and 72% to the rabbit receptor. (Ohshiro, H.; Nonaka, M.; Ichikawa, K. Regul. Pept. 2008, 146, 80-87.)
Beagle dogs were trained to stand quietly in Pavlov frames. Each was implanted using the following procedure with a gastric and duodenal cannula under general anesthesia with standard aseptic precautions. After a medium laparotomy, an incision was made through the gastric wall in the longitudinal direction between the greater and the lesser curvature, 2 cm above the nerves of Latarjet. The gastric cannula (diameter 18 mm) was secured to the gastric wall by means of an appropriate suture and then brought out via a stab wound at the left quadrant of the hypochondrium. The duodenal cannula (diameter 4 mm) was implanted at about 12 cm distal to the pylorum. An incision of approximately 1 cm was made through the duodenal wall 3 cm distally from the site of implantation. The cannula was brought into the duodenum though this incision. The top of the cannula was brought out of the duodenal wall at the place of implantation and secured to the wall via suture. Afterwards, the duodenum was closed and the duodenal cannula was brought out via a stab wound at the right quadrant of the hypochondrium. Dogs were allowed a recovery period of 2 weeks during which they were treated with antibiotics.
Variations in gastric tone were measured by recording changes in the volume of air within an intragastric bag maintained at constant pressure (6 mm Hg) by a barostat. The barostat consists of an air injection system which is connected by a double-lumen polyvinyl tube to an ultrathin flaccid polyethylene bag with maximum volume of approximately 700 mL. Gastric tonic contractions cause the barostat to withdraw air to maintain the pressure, while relaxation triggers air injection to maintain pressure. In that manner, intrabag volume is an inverse measure of proximal gastric tone. Differences in gastric tone were recorded using a computer. […]

Row | Compound | effect on the MMC (MMC) | post-prandial CA, % of pre-drug baseline ([1]; 0.30 mg/kg i.v., 2 h after standard 75 g meal, during first hour, n=2, vehicle 106±10%) | post-prandial activity ([1]; 0.30 mg/kg, i.v., fed dogs) | effect on the migrating motor complex (MMC) ([2]; 0.30 mg/kg, i.v.) | contraction amplitude (CA), % of baseline CA ([2]; 1.0 mg/kg i.v., after 4 h) | contraction amplitude (CA), % of baseline CA ([2]; 1.0 mg/kg i.v., over the first hour) | time to first MMC ([2]; 1.0 mg/kg i.v., controls 99±15 min, P<0.01, n=4, mean±SEM) | effect on the migrating motor complex (MMC) ([2]; 1 mg/kg, i.v., N=6) | phase III activity of the MMC ([2]; 0.10, 0.30, 1.0 mg/kg, i.v., after overnight fast) | time until CA returned to baseline levels ([2]; 0.10 and 0.30 mg/kg doses, n=2) | gastric accommodation in response to the meal ([3]; 0.30 mg/kg i.v. bolus, continuous motilin infusion) | effect on motilin-induced fundic contraction ([3]; 0.30 mg/kg i.v., exogenous motilin 0.010 mg/kg/h i.v.) | AUC of fundic relaxation (0-to-5 min.) ([3]; 0.30 mg/kg i.v., motilin infusion 0.010 mg/kg/h i.v., milk meal, vehicle 18.7±3.3, n=4, p<0.05) | natural relaxation of the stomach in response to a meal (baseline, no motilin) ([3]; 0.1, 0.3 and 1.0 mg/kg, i.v., preliminary experiment) | motilin-induced increase in fundic tone, dose dependence ([3]; FIG. 3, cross-over design, N=6 dogs)
1 | Cc1[nH]cnc1CN1CCc2c(c3ccccc3n2C)C1=O [Alosetron] | block the MMC |  |  |  |  |  |  |  |  |  |  |  |  |  | 
2 | CC(C)[C@H]1NC(=O)[C@@H](Cc2cccc(C(F)(F)F)c2)NCCOc2ccccc2CCCNC(=O)[C@H](CN(C)C)NC1=O [Compound 502] |  | 58±4% | briefly attenuate post-prandial activity | lesser delay of MMCs | 52±21% | 5±2% | 225 ± 31 min | delay the migrating motor complex (MMC) | suppressed the regular occurrence of phase III activity of the MMC in a dose-dependent manner | 3 h | improved gastric accommodation | antagonized the effects of exogenous motilin; also recorded: antagonized the fundic contraction induced by infusion of exogenous motilin | 27.3 ± 3.5 mL/h | did not disturb this baseline phenomenon | prevented this increase in a dose-dependent manner
